According to patent publication US9227966B2, “Antimicrobial agents” (Rutgers, The State University of New Jersey, priority 2010, dated 2016):

system: methicillin-Sensitive Staphylococcus aureus (MSSA); assay: Planktonic (free-living) antibacterial assay, broth microdilution MIC vs. MSSA; assay type: cell-based; conditions: minimal concentration at which bacterial growth is completely inhibited, 37° C., 24 to 48 hours, OD 600 nm
Protocol: Test C. Planktonic (Free-Living) Antibacterial Assay.
Planktonic antibacterial activity can be determined using a broth microdilution assay in which log-phase bacteria are grown at 37° C. in appropriate medium containing two-fold serial dilutions of a compound to yield a final concentration ranging from […]. For determination of minimal inhibitory concentration (MIC) values, bacterial growth is monitored after 24 to 48 hours by measuring optical density at 600 nm.
The minimal inhibitory concentration against methicillin-Sensitive Staphylococcus aureus (MSSA) for each of the following representative compounds of the invention was determined to be less than 32 μg/ml.

MIC, ≤ 32 µg/mL:
COc1cc2c(C)[n+]3ccc4c(OC)c(OC)ccc4c3cc2c(-c2ccc(-c3ccccc3)cc2)c1OC [Example 20]
COc1cc2cc[n+]3cc4c(OC)c(OC)c(OC)cc4cc3c2cc1-c1ccc(-c2ccccc2)cc1.[Cl-] [Example 19]
COc1cc2cc(-c3cccc(-c4ccc(-c5ccccc5)cc4)c3)[n+](C)c(C)c2cc1OC.[I-] [Example 16]
COc1cc2cc3c4cc(-c5ccc(C)cc5)c(OC)cc4cc[n+]3cc2cc1OC.[Cl-] [Example 31]
COc1cc2cc3c4cc(-c5ccccc5)c(OC)cc4cc[n+]3cc2cc1OC.[Cl-] [Example 35]
COc1cc2cc(-c3cccc(-c4ccccc4)c3)[n+](C)c(C)c2cc1OC.[I-] [Example 4]
C[n+]1cc2ccccc2cc1-c1cccc(-c2ccccc2)c1.[I-] [Example 2]
COc1cc2cc3c4cc(-c5ccc(C)cc5)c(OC)cc4cc[n+]3c(C)c2cc1OC [Example 30]
COc1cc2cc3c4cc(-c5cccc(N(C)C)c5)c(OC)cc4cc[n+]3c(C)c2cc1OC [Example 27]
COc1cc2cc(-c3cc(-c4ccccc4)cc(-c4ccccc4)c3)[n+](C)c(C)c2cc1OC.[I-] [Example 8]
COc1cc2cc3c4cc(-c5ccc(-c6ccccc6)cc5)c(OC)c(OC)c4cc[n+]3c(C)c2cc1OC [Example 17]
C[n+]1cc2ccccc2cc1-c1cc(-c2ccccc2)cc(-c2ccccc2)c1.[I-] [Example 6]
COc1cc2c[n+]3ccc4c(OC)c(OC)ccc4c3cc2c(-c2ccc(-c3ccccc3)cc2)c1OC.[Cl-] [Example 21]
